Earlier results in patent US6225288A, “Gamma-ketoacid dipeptides as inhibitors of caspase-3” (Merk Frosst Canada & Co., priority 2000, dated 2001).

Experiments:
caspase-3 = target: T1, caspase-3 (Homo sapiens, UniProt P42574)
T1 sequence (P42574 29-175 limits assumed): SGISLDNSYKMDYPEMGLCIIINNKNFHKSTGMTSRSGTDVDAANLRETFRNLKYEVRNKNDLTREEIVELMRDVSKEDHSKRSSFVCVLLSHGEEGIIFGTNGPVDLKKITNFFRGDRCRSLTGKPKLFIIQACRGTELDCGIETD
T1 sequence (P42574 176-277 limits assumed): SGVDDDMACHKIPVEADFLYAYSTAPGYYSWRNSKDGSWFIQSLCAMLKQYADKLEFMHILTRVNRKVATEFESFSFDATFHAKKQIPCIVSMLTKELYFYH

caspase-1 = target: T2, caspase-1 (Homo sapiens, UniProt P29466)
T2 sequence (P29466 120-297 limits assumed): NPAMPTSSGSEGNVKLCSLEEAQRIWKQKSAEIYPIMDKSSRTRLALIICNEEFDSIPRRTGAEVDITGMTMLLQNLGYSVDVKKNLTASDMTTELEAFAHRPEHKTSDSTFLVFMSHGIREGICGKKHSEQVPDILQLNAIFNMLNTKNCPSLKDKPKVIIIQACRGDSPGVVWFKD
T2 sequence (P29466 317-404 limits assumed): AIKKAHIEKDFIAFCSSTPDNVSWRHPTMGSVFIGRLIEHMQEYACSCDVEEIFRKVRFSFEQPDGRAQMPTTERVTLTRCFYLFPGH

In the case of Ac-YVAD-CHO, the Ki (caspase-3) is given as 12 µM and the Ki (caspase-1) is given as < 0.001 µM.
